# Key:
# [1] = tested on: Enterococcus faecalis Enfa_29212; assay: MIC, broth microdilution (NCCLS); format: cell-based
# How it was run: (§1)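 NCCLS broth microdilution with 2-fold serial drug dilutions (methanol stocks diluted in water); inoculum 3×10^5–7×10^5 CFU/ml in CAMHB, with 2-5% lysed horse blood for S. pneumoniae. Incubation 18-24 h at 35° C., ambient air, except S. pneumoniae (5-10% CO2). MIC is lowest concentration preventing visible growth.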
# [2] = tested on: Haemophilus influenzae Hain_49247; assay: MIC, broth microdilution (NCCLS); format: cell-based; conditions: unit assumed
# [3] = tested on: Staphylococcus epidermidis Step_14990; assay: MIC, broth microdilution (NCCLS); format: cell-based
# How it was run: as §1
# [4] = tested on: Staphylococcus epidermidis Step_f50654; assay: MIC, broth microdilution (NCCLS); format: cell-based
# How it was run: as §1
# [5] = tested on: Streptococcus pneumoniae Stpn_Erm S 4297; assay: MIC, broth microdilution (NCCLS); format: cell-based
# How it was run: as §1
# [6] = tested on: Streptococcus pneumoniae Stpn_Mef S 3427; assay: MIC, broth microdilution (NCCLS); format: cell-based
# How it was run: as §1
# [7] = tested on: Streptococcus pyogenes Stpy_8668; assay: MIC, broth microdilution (NCCLS); format: cell-based
# How it was run: as §1
# [8] = tested on: Streptococcus pneumoniae Stpn_49619; assay: MIC, broth microdilution (NCCLS); format: cell-based
# How it was run: as §1
# [9] = tested on: Streptococcus pneumoniae Stpn_297-749; assay: MIC, broth microdilution (NCCLS); format: cell-based
# How it was run: as §1
# [10] = tested on: Streptococcus pneumoniae Stpn_280-962; assay: MIC, broth microdilution (NCCLS); format: cell-based
# How it was run: as §1
# [11] = tested on: S. pneumoniae Stpn_Erm 6849; assay: MIC, broth microdilution (NCCLS); format: cell-based, Streptococcus pneumoniae; conditions: Table 5, Strain ID H (Table 4): S. pneumoniae Stpn_Erm 6849; unit assumed
# How it was run: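 S. pneumoniae MIC by NCCLS broth microdilution in cation-adjusted Mueller-Hinton broth with 2-5% lysed horse blood, inoculum 3×10^5–7×10^5 CFU/ml, 2-fold drug dilutions. Incubated 18-24 hours at 35° C. in 5-10% CO2; MIC is lowest concentration preventing visible growth.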
# [12] = tested on: Streptococcus pneumoniae Stpn_Mef 5654; assay: MIC, broth microdilution (NCCLS); format: cell-based; conditions: in µg/mL (unit assumed)
# How it was run: as §1
# [13] = tested on: E. coli Esco_25922; assay: MIC, broth microdilution (NCCLS); format: cell-based; conditions: Table 5, Strain ID M (Table 4): E. coli Esco_25922; unit assumed
# Experimental: Strains. The bacterial isolates listed in Table 4 were cultivated from −70° C. frozen stocks by two consecutive overnight passages (P1, P2) at 35° C. on 5% blood agar (Remel, Lenexa, Kans.). Chocolate agar (Remel) is used for Haemophilus influenzae. H. influenzae and Streptococcus pneumoniae are incubated in 5-10% CO2
# Drug Stock Preparation. To determine the amount of solvent to be used to give the desired final concentration, the formula “weight obtained in mg/final concentration in mg/ml” will be used. It will give the amount of solvent in ml needed to be added to give the desired concentration. For example, if 2.5 mg/ml is the desired concentration and the weight of compound is 13.7 mg, then the amount of solvent to be added is […]. Methanol is used as the solvent to dissolve the test compounds. Further dilution of stock is done in sterile, deionized water. Drug stocks are kept frozen at −70° C., protected from light.
# Susceptibility Testing. MICs are determined by the broth microdilution method in accordance with the NCCLS guidelines. In brief, organism suspensions are adjusted to a 0.5 McFarland standard to yield a final inoculum between 3×10^5 and 7×10^5 CFU/ml. Drug dilutions and inocula are made in sterile, cation adjusted Mueller-Hinton Broth (CAMHB) (Remel) for all but S. pneumoniae [CAMHB with 2-5% lysed horse blood (Remel)] and H. influenzae [Haemophilus Test Medium (Remel)]. An inoculum volume of 100 μl is added to wells containing 100 μl of broth with 2-fold serial dilutions of drug. All inoculated microdilution trays are incubated in ambient air at 35° C. for 18-24 hours, except for S. pneumoniae, and H. influenzae (both at 5-10% CO2).
# Following appropriate incubation, the MIC is determined and the MIC is defined as the lowest concentration of the drug that prevented visible growth.
# [14] = tested on: Staphylococcus aureus Stau_29213; assay: MIC, broth microdilution (NCCLS); format: cell-based; conditions: Table 10, Strain ID A (Table 8): Staphylococcus aureus Stau_29213
# How it was run: as §1
# [15] = tested on: Enterococcus faecalis Enfa_bc 11148-2; assay: MIC, broth microdilution (NCCLS); format: cell-based; conditions: Table 10, Strain ID F (Table 8): Enterococcus faecalis Enfa_bc 11148-2; in µg/mL (unit assumed)
# How it was run: (§2)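 NCCLS broth microdilution; CAMHB / HTM (H. influenzae); inoc 3×10^5–7×10^5 CFU/ml; 35° C, 18-24 h, H. influenzae 5-10% CO2; MIC = no visible growth.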
# [16] = tested on: Haemophilus influenzae Hain_2762; assay: MIC, broth microdilution (NCCLS); format: cell-based; conditions: Table 10, Strain ID L (Table 8): Haemophilus influenzae Hain_2762; in µg/mL (unit assumed)
# How it was run: as §2
# [17] = tested on: Haemophilus influenzae Hain_953460299-3; assay: MIC, broth microdilution (NCCLS); format: cell-based; conditions: Table 10, Strain ID K (Table 8): Haemophilus influenzae Hain_953460299-3; in µg/mL (unit assumed)
# How it was run: as §2
# [18] = tested on: Haemophilus influenzae Hain_960730503-3; assay: MIC, broth microdilution (NCCLS); format: cell-based; conditions: Table 10, Strain ID I (Table 8): Haemophilus influenzae Hain_960730503-3; in µg/mL (unit assumed)
# How it was run: as §2
# [19] = tested on: Haemophilus influenzae Hain_960820544-3; assay: MIC, broth microdilution (NCCLS); format: cell-based; conditions: Table 10, Strain ID J (Table 8): Haemophilus influenzae Hain_960820544-3; in µg/mL (unit assumed)
# How it was run: as §2
# [20] = tested on: Staphylococcus aureus Stau_33591; assay: MIC, broth microdilution (NCCLS); format: cell-based; conditions: Table 10, Strain ID B (Table 8): Staphylococcus aureus Stau_33591; unit assumed
# How it was run: as §2
# [21] = In vivo pharmacokinetic study in rats, plasma (IV and PO); design: species or system Sprague-Dawley rats; conditions: rat
# Experimental: (§3) Animal Models. A total of 54 male Sprague-Dawley rats, weighing 200 grams in average, were evaluated for pharmacokinetic studies of representative pyridyl substituted ketolides. Rats were under overnight food restriction and received water ad libitum. Rats were acclimated for approximately 5 days before antibiotic administration.
# (§4) Antibiotic Administration. Rats were given bolus administration through (IV) and oral (PO) routes. Representative pyridyl substituted ketolides and telithromycin, for comparison, were diluted in 0.85% saline to a concentration of 15.0 mg/ml, and the resulting pH was adjusted using 1N acetic acid until the compound was in solution. Approximately 200 microliters of the compound solution was administered to the rats. The target dose for IV and PO administration was 5 mg/kg and 15 mg/kg, respectively.
# (§5) Sample Collection. Plasma and whole lung samples were collected from the rats. Plasma samples were obtained from blood samples by centrifugation at 3000 RPM for 10 min. Heparin was added in the plasma as an anticoagulant. Whole lung samples were homogenized in deionized water. Samples were stored at −80° C. A total of 9 time points were collected in triplicate at 0.083, 0.25, 0.5, 1, 2, 4, 6, 8, and 24 hrs. Ketolide concentrations in plasma and lung were determined by well-established non-GLP LC-MS-MS methods. PK parameters were estimated from the raw bioanalytical data using WinNolin software (Version 4.0, Pharsight Corporation, CA). […] All representative compounds were compared to telithromycin.
# [22] = In vivo pharmacokinetic study in rats, whole lung (IV and PO); conditions: male, Sprague-Dawley, 5 mg/kg, rat
# Experimental: as §3, §4, §5
# [23] = Table 5, Strain ID C (Table 4): E. faecalis Enfa_29212, in µg/mL (unit assumed)
# [24] = Table 5, Strain ID L (Table 4): H. influenzae Hain_49247
# [25] = Table 5, Strain ID A (Table 4): S. epidermidis Step_14990, in µg/mL (unit assumed)
# [26] = Table 5, Strain ID B (Table 4): S. epidermidis Step_f50654 Pen S, in µg/mL (unit assumed)
# [27] = Table 5, Strain ID D (Table 4): S. pyogenes Stpy_8668
# [28] = Table 5, Strain ID E (Table 4): S. pneumoniae Stpn_49619
# [29] = Table 5, Strain ID F (Table 4): S. pneumoniae Stpn_297-749 Pen R
# [30] = Table 5, Strain ID G (Table 4): S. pneumoniae Stpn_280-962 Pen S
# [31] = Table 5, Strain ID J (Table 4): S. pneumoniae Stpn_Mef 5654
smiles,measurement,setting,value
CC[C@H]1OC(=O)[C@H](C)C(=O)[C@H](C)[C@@H](OC2O[C@H](C)C[C@H](N(C)C)[C@H]2O)[C@@](C)(OC)C[C@@H](C)C(=O)[C@H](C)[C@H]2N(CCCCn3cnc(-c4ccccc4)c3)C(=O)O[C@]12CC (stereo partly drawn) [Compound 7281],MIC,[1]; [23],0.1
same,MIC,[2]; [24],3.13 µg/mL
same,MIC,[3]; [25],0.2
same,MIC,[4]; [26],0.1
same,MIC,"[5]; Table 5, Strain ID I (Table 4): S. pneumoniae Stpn_Erm S 4297",=0.05
same,MIC,"[6]; Table 5, Strain ID K (Table 4): S. pneumoniae Stpn_Mef S 3427",=0.05
same,MIC,[7]; [27],=0.05
same,MIC,[8]; [28],=0.05
same,MIC,[9]; [29],=0.05
same,MIC,[10]; [30],=0.05
same,MIC,[11],0.2 µg/mL
same,MIC,[12]; [31],0.4
same,MIC,[13],25 µg/mL
CC[C@H]1OC(=O)[C@H](C)C(=O)[C@H](C)[C@@H](OC2O[C@H](C)C[C@H](N(C)C)[C@H]2O)[C@@](C)(OC)C[C@@H](C)C(=O)[C@H](C)[C@H]2N(CCCCn3cnc4ccccc43)C(=O)O[C@]12CC (stereo partly drawn) [Compound 7282],MIC,[1]; [23],0.1
same,MIC,[2]; [24],3.13 µg/mL
same,MIC,[3]; [25],0.4
same,MIC,[4]; [26],0.2
same,MIC,"[5]; Table 5, Strain ID I (Table 4): S. pneumoniae Stpn_Erm S 4297, unit assumed",0.2 µg/mL
same,MIC,"[6]; Table 5, Strain ID K (Table 4): S. pneumoniae Stpn_Mef S 3427, in µg/mL (unit assumed)",0.1
same,MIC,[7]; [27],=0.05
same,MIC,[8]; [28],=0.05
same,MIC,[9]; [29],=0.05
same,MIC,[10]; [30],=0.05
same,MIC,[11],0.78 µg/mL
same,MIC,[12]; [31],0.4
same,MIC,[13],12.5 µg/mL
C=C[C@]12OC(=O)N(CCCCn3cnc(-c4ccc(Cl)nc4)c3)[C@@H]1[C@@H](C)C(=O)[C@H](C)C[C@](C)(OC)[C@H](OC1O[C@H](C)C[C@H](N(C)C)[C@H]1O)[C@@H](C)C(=O)[C@@H](C)C(=O)O[C@@H]2CC (stereo partly drawn) [XX],MIC,"[1]; Table 10, Strain ID E (Table 8): Enterococcus faecalis Enfa_29212",=0.05
same,MIC,"[2]; Table 10, Strain ID H (Table 8): Haemophilus influenzae Hain_49247",3.13 µg/mL
same,MIC,[14],=0.05
same,MIC,"[3]; Table 10, Strain ID C (Table 8): Staphylococcus epidermidis Step_14990",=0.05
same,MIC,"[4]; Table 10, Strain ID D (Table 8): Staphylococcus epidermidis Step_f50654",=0.05
same,MIC,"[5]; Table 10, Strain ID R (Table 8): Streptococcus pneumoniae Stpn_Erm S 4297",=0.05
same,MIC,"[6]; Table 10, Strain ID Q (Table 8): Streptococcus pneumoniae Stpn_Mef S 3427",=0.05
same,MIC,[15],0.1
same,MIC,[16],0.78
same,MIC,[17],6.25
same,MIC,[18],3.13
same,MIC,[19],3.13
same,MIC,[20],> 50 µg/mL
same,MIC,"[7]; Table 10, Strain ID G (Table 8): Streptococcus pyogenes Stpy_8668",=0.05
same,MIC,"[8]; Table 10, Strain ID M (Table 8): Streptococcus pneumoniae Stpn_49619",=0.05
same,MIC,"[9]; Table 10, Strain ID N (Table 8): Streptococcus pneumoniae Stpn_297-749",=0.05
same,MIC,"[10]; Table 10, Strain ID O (Table 8): Streptococcus pneumoniae Stpn_280-962",=0.05
same,MIC,"[12]; Table 10, Strain ID P (Table 8): Streptococcus pneumoniae Stpn_Mef 5654",0.2
same,half-life,"[21]; male, Sprague-Dawley, 5 mg/kg, IV, plasma, read-out: t1/2, IV Plasma (converted)",1.3 h
same,AUC,"[21]; male, Sprague-Dawley, plasma, IV, dose IV = 5 mg/kg (Compound XIV: IV = 15)",2300 ng·h/mL
same,clearance,"[21]; male, Sprague-Dawley, plasma, intravenous",107 mL/min/kg
same,Vd,"[21]; male, Sprague-Dawley, plasma, intravenous, read-out: Vss",12 L/kg
same,"F, PO",[21]; PO = 15 mg/kg,26%
same,half-life,"[22]; IV, whole lung, read-out: t1/2, IV Lung (converted)",1.4 h
same,Kp,"[22]; lung/plasma, iv, read-out: L/P ratio, IV",94

# — patent US7332476B2, “Pyridyl substituted ketolide antibiotics” (Novartis AG, priority 2003, dated 2008)
